Biological target: T1, EHMT2 (Homo sapiens, UniProt Q96KQ7)
T1 construct: host or cells: MDA-MB-231
T1 sequence (Q96KQ7 1-1210): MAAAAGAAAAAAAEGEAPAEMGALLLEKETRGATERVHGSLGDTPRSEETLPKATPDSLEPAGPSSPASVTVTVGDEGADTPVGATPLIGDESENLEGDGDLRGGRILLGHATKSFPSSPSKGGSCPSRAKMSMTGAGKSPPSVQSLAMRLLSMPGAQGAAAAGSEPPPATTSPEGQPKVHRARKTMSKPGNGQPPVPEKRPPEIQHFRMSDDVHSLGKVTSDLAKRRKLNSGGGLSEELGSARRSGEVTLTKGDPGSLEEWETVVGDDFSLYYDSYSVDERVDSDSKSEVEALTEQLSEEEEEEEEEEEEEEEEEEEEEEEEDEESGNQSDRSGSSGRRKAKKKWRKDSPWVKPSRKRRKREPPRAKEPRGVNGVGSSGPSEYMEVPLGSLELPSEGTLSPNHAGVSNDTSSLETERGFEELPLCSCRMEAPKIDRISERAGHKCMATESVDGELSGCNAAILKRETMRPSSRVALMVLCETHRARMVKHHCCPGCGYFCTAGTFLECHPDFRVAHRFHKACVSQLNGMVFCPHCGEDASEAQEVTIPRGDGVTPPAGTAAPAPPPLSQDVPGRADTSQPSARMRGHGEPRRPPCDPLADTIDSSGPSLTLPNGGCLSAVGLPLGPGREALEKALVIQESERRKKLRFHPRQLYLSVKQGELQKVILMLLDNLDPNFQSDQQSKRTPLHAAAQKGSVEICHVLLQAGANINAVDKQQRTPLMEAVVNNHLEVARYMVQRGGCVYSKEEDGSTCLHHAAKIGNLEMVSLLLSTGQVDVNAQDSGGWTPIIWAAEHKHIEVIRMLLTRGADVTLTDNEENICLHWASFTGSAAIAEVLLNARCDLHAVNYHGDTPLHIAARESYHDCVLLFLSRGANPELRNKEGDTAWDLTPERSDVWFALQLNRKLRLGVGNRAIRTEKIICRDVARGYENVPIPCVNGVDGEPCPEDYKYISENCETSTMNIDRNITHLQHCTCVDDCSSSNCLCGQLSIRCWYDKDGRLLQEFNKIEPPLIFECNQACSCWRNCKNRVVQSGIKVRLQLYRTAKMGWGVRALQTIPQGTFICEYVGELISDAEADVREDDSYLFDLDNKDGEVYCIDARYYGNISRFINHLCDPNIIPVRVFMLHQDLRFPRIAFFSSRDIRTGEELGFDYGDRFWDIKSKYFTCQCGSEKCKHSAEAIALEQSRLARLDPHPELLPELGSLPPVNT
Assay: MDA-MB-231 H3K9me2 in-cell Western assay (EHMT2 ICW)
Type: cell-based
Settings: Table VII; read-out: EHMT2 ICW IC50
Procedure, shortened: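 MDA-MB-231 cells (3,000/well) were exposed to compound for 30 min at room temperature and then 48 h at 37 °C, fixed with paraformaldehyde, and stained with anti-H3K9me2 (800 nm) plus DRAQ5 (700 nm). Per-well channel ratios gave percent inhibition, and IC50 came from a four-parameter fit of triplicate wells.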

Row | Compound | IC50 [µM]
1 | CNc1cc(C)nc(Nc2ccc(OC)c(CNCCN(C)C)c2)n1 [Compound 1101] | 0.1 to 1
2 | CNC[C@H](C)NCc1cc(Nc2nc(C)cc(NC)n2)ccc1OC [Compound 1102] | 0.1 to 1
3 | CNC[C@@H](C)NCc1cc(Nc2nc(C)cc(NC)n2)ccc1OC [Compound 1103] | 1 to 10
4 | CNc1cc(C)nc(Nc2ccc(OC)c(COCCN3CCCC3)c2)n1 [Compound 1104] | 0.1 to 1
5 | CNc1cc(C)nc(Nc2ccc(OC)c(COCCN(C)C)c2)n1 [Compound 1105] | 1 to 10
6 | CCNc1cc(C)nc(Nc2ccc(OC)c(OC[C@H](O)CN3CCCC3)c2)n1 [Compound 1106] | 0.1 to 1
7 | CNc1cc(C2CCOCC2)c2cc(OC)c(OC[C@H](O)CN3CCCC3)cc2n1 [Compound 1107] | 0.1 to 1

— patent US20210198277A1, “AMINE-SUBSTITUTED ARYL OR HETEROARYL COMPOUNDS” (Epizyme, Inc., priority 2016, published 2021)
